Measurements published in ChEMBL document CHEMBL3286135, “Antiviral C-25 epimers of 26-acetoxy steroids from the South China Sea gorgonian Echinogorgia rebekka” (J Nat Prod, 2014).
Activity calls are given as the source filed them. No cut-off for these calls is given here.

Experiments:
[1] = tested on: Bacillus cereus; assay: Antibacterial activity against Bacillus cereus by broth dilution assay; type: functional, organism-based
[2] = Cytotoxicity against mock-infected human Hep2 cells by XTT assay; type: cell-based, HEp-2; conditions: read-out: TC50 (the source's name)
[3] = tested on: Pseudomonas putida; assay: Antibacterial activity against Pseudomonas putida by broth dilution assay; type: functional, organism-based
[4] = Therapeutic ratio of TC50 for mock-infected human Hep2 cells to IC50 for Respiratory syncytial virus infected in human Hep2 cells; type: ADME, cell-based, HEp-2; conditions: read-out: TI
[5] = tested on: Respiratory syncytial virus; assay: Antiviral activity against Respiratory syncytial virus infected in human Hep2 cells assessed as virus-induced cytopathicity by XTT assay; type: functional, organism-based; conditions: HEp-2
[6] = tested on: Tetragenococcus halophilus; assay: Antibacterial activity against Tetragenococcus halophilus by broth dilution assay; type: functional
[7] = tested on: K562; assay: Cytotoxicity against human K562 cells by MTT assay; type: functional, cell-based
[8] = tested on: Staphylococcus epidermidis; assay: Antibacterial activity against Staphylococcus epidermidis by broth dilution assay; type: functional, organism-based
[9] = tested on: Nocardia brasiliensis; assay: Antibacterial activity against Nocardia brasiliensis by broth dilution assay; type: functional, organism-based
[10] = tested on: Staphylococcus aureus; assay: Antibacterial activity against Staphylococcus aureus by broth dilution assay; type: functional, organism-based
[11] = tested on: Vibrio parahaemolyticus; assay: Antibacterial activity against Vibrio parahaemolyticus by broth dilution assay; type: functional, organism-based
[12] = tested on: Escherichia coli; assay: Antibacterial activity against Escherichia coli by broth dilution assay; type: functional, organism-based
[13] = tested on: HL-60; assay: Cytotoxicity against human HL60 cells by MTT assay; type: functional, cell-based
[14] = tested on: A549; assay: Cytotoxicity against human A549 cells by SRB assay; type: functional, cell-based
[15] = tested on: HeLa; assay: Cytotoxicity against human HeLa cells by SRB assay; type: functional, cell-based

CC(=O)OCC(C)/C=C/[C@@H](C)[C@H]1CC[C@H]2[C@@H]3CC(=O)[C@@]4(O)C[C@@H](O)CC[C@]4(C)[C@H]3CC[C@]12C (stereo not given in full)
Activity [1]: inactive
CC50 [2]: 12.9 µM
Activity [3]: inactive
selectivity ratio [4]: 4
IC50 [5]: 3.23 µM
Activity [6]: inactive
IC50 [7]: 4.19 µM
Activity [8]: inactive
Activity [9]: inactive
Activity [10]: inactive
Activity [11]: inactive
Activity [12]: inactive

CC(=O)OC[C@H](C)[C@H](C)/C=C/[C@@H](C)[C@H]1CC[C@H]2[C@@H]3CC(=O)[C@@]4(O)C[C@@H](O)CC[C@]4(C)[C@H]3CC[C@]12C
Activity [1]: inactive
CC50 [2]: 24.4 µM
Activity [3]: inactive
selectivity ratio [4]: 128
Activity [13]: inactive
IC50 [5]: 0.19 µM
Activity [6]: inactive
Activity [7]: inactive
Activity [14]: inactive
Activity [8]: inactive
Activity [15]: inactive
Activity [9]: inactive
Activity [10]: inactive
Activity [11]: inactive
Activity [12]: inactive

CC(=O)OC[C@@H](C)[C@H](C)/C=C/[C@@H](C)[C@H]1CC[C@H]2[C@@H]3CC(=O)[C@@]4(O)C[C@@H](O)CC[C@]4(C)[C@H]3CC[C@]12C
Activity [1]: inactive
CC50 [2]: 0.38 µM
Activity [3]: inactive
selectivity ratio [4]: 2
IC50 [13]: 8.99 µM
IC50 [5]: 0.19 µM
Activity [6]: inactive
IC50 [7]: 6.36 µM
Activity [8]: inactive
Activity [9]: inactive
Activity [10]: inactive
Activity [11]: inactive
Activity [12]: inactive

NC(=O)c1ncn([C@@H]2O[C@H](CO)[C@@H](O)[C@H]2O)n1 [RIBAVIRIN]
CC50 [2]: > 3000 µM
selectivity ratio [4]: > 147
IC50 [5]: 20.4 µM

CC(=O)OC[C@@H](C)C/C=C/[C@@H](C)[C@H]1CC[C@H]2[C@@H]3CC(=O)[C@@]4(O)C[C@@H](O)CC[C@]4(C)[C@H]3CC[C@]12C
Activity [1]: inactive
CC50 [2]: 12.6 µM
Activity [3]: inactive
selectivity ratio [4]: 16
IC50 [5]: 0.78 µM
Activity [6]: inactive
IC50 [7]: 0.85 µM
Activity [8]: inactive
Activity [9]: inactive
Activity [10]: inactive
Activity [11]: inactive
Activity [12]: inactive
